Reference: ChEMBL document CHEMBL3991601, “The target landscape of clinical kinase drugs” (Science, 2017)
Activity calls are given as the source filed them.

Legend:
Actin-related protein 2 = Actin-related protein 2 (Homo sapiens, UniProt P61160)
[1] = target: DnaJ homolog subfamily A member 1 (Homo sapiens, UniProt P31689)
[2] = target: T1, EKC/KEOPS complex subunit TP53RK (Homo sapiens, UniProt Q96S44)
T1 sequence (Q96S44 whole entry): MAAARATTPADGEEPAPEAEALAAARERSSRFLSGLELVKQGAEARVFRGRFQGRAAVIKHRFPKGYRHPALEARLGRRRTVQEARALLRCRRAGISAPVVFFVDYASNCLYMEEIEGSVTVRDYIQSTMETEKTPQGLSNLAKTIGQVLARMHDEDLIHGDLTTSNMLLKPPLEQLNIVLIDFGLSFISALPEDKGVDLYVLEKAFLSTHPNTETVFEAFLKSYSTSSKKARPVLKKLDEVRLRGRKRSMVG

[3] = target: T2, Succinate--CoA ligase [ADP-forming] subunit beta, mitochondrial (Homo sapiens, UniProt Q9P2R7)
T2 sequence (Q9P2R7 whole entry): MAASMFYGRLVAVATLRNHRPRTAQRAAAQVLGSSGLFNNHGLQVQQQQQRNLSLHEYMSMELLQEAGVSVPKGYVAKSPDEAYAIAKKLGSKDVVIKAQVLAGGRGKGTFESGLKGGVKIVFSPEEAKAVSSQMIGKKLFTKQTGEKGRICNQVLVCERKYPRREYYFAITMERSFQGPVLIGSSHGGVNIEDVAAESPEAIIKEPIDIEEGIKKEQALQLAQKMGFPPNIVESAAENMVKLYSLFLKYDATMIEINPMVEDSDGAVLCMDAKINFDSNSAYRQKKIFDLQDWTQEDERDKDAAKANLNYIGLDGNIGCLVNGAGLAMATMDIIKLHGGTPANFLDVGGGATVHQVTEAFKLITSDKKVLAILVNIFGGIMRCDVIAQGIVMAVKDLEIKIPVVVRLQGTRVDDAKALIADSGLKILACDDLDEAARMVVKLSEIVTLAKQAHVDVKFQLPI

[4] = target: T3, Serine/threonine-protein kinase Nek9 (Homo sapiens, UniProt Q8TD19)
T3 sequence (Q8TD19 whole entry): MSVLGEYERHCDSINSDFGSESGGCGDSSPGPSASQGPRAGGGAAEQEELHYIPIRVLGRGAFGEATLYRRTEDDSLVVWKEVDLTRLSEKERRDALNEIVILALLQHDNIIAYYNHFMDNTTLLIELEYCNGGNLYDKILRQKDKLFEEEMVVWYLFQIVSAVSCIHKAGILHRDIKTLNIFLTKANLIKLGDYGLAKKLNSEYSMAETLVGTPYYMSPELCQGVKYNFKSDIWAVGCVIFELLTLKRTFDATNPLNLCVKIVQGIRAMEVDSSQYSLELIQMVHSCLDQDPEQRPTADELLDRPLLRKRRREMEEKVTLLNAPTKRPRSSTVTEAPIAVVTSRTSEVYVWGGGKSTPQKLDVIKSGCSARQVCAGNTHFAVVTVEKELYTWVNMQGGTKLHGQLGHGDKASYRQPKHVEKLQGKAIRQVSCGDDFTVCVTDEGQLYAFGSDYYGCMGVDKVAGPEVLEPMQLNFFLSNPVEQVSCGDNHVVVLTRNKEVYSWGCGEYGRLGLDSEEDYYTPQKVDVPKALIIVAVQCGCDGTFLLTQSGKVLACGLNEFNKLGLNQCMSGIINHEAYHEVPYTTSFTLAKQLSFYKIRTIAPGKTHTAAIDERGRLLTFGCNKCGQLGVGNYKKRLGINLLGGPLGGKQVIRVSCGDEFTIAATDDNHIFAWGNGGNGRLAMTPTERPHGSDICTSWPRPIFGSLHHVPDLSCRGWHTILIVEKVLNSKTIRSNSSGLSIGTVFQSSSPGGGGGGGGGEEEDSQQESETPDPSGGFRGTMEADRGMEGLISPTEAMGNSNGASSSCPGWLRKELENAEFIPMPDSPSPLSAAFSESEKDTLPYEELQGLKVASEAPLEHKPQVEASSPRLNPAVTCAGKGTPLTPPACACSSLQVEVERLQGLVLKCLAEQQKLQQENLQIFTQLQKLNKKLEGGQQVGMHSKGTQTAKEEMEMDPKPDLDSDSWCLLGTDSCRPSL

LIM domain kinase 2 = LIM domain kinase 2 (Homo sapiens, UniProt P53671)
Ephrin type-A receptor 2 = Ephrin type-A receptor 2 (Homo sapiens, UniProt P29317)
[5] = target: T4, Adenine phosphoribosyltransferase (Homo sapiens, UniProt P07741)
T4 sequence (P07741 whole entry): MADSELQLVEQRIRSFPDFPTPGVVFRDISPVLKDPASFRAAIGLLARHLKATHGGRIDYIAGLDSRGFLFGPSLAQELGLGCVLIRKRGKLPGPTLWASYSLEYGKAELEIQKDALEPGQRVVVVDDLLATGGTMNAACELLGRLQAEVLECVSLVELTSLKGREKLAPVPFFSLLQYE

Obg-like ATPase 1 = Obg-like ATPase 1 (Homo sapiens, UniProt Q9NTK5)
[6] = target: Citron Rho-interacting kinase (Homo sapiens, UniProt O14578)
Also: in the data inactive means no Kd found up to 30 µM.

Sequence of Ephrin type-A receptor 2 (P29317 whole entry): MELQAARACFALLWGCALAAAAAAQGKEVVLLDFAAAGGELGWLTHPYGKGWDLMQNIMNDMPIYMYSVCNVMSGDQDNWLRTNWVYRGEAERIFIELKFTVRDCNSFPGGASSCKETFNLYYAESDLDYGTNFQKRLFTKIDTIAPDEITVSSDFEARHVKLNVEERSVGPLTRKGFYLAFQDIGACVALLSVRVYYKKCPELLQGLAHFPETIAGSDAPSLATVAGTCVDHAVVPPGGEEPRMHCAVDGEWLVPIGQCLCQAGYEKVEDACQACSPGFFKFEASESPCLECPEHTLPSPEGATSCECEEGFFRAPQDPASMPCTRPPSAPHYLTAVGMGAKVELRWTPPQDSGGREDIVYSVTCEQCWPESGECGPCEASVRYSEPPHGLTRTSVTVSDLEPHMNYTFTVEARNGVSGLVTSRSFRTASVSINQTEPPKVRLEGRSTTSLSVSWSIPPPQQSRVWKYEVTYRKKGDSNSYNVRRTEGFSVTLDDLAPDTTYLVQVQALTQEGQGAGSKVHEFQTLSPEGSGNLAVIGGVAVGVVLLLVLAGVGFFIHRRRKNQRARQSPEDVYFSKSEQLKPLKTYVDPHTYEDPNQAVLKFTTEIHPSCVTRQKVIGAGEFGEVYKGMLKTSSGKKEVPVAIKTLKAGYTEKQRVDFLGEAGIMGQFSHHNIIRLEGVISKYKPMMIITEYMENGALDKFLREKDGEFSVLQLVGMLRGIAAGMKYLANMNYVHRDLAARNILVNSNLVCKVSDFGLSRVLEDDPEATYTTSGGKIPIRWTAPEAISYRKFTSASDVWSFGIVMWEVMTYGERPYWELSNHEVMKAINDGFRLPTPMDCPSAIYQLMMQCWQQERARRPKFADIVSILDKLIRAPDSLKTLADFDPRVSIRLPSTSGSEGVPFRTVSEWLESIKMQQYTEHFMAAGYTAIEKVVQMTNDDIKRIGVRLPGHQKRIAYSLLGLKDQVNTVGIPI
Sequence of Obg-like ATPase 1 (Q9NTK5 whole entry, looked up): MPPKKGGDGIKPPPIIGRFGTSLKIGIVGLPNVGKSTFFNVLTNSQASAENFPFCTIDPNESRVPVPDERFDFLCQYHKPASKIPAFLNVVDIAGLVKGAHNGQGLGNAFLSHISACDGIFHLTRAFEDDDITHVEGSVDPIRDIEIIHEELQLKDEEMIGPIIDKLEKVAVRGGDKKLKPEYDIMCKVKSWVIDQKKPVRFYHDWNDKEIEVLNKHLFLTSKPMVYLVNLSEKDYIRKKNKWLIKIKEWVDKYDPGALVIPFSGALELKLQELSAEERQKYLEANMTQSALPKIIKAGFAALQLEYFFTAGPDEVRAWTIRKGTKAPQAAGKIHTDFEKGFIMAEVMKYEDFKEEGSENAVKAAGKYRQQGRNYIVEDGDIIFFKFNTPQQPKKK
Sequence of DnaJ homolog subfamily A member 1 (P31689 whole entry): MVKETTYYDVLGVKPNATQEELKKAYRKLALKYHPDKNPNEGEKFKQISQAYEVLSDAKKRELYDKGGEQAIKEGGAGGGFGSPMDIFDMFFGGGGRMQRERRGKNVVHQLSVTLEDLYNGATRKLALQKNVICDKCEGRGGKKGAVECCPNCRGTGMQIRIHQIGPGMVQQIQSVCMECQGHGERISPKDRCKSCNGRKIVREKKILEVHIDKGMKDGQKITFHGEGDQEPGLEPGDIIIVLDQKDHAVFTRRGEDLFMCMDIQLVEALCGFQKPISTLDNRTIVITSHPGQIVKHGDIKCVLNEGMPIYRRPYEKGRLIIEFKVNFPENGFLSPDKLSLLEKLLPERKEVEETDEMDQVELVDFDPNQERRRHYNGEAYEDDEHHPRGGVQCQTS
Sequence of Citron Rho-interacting kinase (O14578 whole entry): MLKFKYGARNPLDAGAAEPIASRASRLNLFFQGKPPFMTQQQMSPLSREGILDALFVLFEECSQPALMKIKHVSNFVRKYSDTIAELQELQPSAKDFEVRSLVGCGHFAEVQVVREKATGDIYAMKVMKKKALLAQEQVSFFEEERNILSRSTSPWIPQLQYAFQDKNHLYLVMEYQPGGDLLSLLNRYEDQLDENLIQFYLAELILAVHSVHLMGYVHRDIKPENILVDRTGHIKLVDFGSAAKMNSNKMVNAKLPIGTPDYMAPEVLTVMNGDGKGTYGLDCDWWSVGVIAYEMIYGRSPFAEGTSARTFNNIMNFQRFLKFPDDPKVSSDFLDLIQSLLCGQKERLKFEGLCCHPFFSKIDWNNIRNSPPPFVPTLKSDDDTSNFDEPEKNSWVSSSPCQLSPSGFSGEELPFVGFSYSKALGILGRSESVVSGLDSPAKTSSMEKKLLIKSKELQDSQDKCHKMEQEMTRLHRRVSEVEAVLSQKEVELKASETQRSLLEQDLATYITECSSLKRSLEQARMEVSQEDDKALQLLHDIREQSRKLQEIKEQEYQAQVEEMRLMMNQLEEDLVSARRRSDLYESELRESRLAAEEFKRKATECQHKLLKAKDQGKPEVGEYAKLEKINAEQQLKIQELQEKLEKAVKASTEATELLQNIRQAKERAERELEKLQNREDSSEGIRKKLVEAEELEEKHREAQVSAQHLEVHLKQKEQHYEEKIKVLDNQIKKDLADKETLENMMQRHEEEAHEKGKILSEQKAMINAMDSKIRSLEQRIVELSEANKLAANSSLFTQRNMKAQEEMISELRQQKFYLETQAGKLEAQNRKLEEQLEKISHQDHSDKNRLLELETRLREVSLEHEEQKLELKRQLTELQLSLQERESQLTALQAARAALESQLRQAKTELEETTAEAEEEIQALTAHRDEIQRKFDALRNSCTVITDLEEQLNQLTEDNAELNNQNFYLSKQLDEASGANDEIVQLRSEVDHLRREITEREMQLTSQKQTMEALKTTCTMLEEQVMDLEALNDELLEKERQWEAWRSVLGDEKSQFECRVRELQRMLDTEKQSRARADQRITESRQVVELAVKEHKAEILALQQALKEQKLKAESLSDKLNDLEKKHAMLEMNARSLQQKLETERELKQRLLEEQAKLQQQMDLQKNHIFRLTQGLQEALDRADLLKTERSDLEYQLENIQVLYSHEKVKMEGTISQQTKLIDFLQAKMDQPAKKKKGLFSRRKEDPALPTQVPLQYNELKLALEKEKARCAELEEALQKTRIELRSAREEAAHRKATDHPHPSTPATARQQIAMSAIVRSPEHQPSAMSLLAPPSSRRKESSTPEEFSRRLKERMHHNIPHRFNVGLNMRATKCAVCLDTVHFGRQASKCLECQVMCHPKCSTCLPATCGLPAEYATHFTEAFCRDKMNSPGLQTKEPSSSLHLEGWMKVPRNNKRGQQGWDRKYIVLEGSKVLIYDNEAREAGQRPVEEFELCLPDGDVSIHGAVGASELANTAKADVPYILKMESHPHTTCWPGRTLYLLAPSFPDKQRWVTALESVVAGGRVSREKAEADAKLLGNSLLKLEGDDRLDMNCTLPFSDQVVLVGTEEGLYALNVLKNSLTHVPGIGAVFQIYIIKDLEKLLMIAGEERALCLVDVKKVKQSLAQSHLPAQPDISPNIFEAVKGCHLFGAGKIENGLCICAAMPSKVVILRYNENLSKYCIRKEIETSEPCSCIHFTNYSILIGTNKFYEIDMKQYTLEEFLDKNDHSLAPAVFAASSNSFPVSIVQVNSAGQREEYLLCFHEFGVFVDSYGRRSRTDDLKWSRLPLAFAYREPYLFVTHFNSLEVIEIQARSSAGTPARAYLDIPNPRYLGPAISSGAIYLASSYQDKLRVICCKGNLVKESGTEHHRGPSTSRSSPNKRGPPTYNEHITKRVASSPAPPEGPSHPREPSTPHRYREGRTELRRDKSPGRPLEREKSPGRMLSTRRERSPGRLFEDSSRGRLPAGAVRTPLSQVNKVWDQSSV
Sequence of LIM domain kinase 2 (P53671 whole entry, the tested form may be a part): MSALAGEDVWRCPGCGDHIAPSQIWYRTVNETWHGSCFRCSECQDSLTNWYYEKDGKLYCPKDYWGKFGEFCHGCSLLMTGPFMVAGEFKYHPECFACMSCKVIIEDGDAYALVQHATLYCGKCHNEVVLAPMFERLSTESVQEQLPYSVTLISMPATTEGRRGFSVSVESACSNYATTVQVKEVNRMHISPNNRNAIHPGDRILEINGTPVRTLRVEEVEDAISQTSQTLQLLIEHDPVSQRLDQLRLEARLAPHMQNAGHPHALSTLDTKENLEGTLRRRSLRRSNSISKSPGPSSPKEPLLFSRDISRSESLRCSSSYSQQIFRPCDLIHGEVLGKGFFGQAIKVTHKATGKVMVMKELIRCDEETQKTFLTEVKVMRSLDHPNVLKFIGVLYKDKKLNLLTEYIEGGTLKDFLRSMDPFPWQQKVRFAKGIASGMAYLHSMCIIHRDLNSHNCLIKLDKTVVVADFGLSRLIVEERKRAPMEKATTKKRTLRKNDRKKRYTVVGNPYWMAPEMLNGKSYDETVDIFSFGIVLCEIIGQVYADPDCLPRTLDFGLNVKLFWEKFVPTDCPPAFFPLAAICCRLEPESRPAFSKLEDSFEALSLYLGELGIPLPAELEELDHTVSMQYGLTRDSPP

| SMILES | Kd (Actin-related protein 2) | Kd [1] | Kd [2] | Kd [3] | Kd [4] | Kd (LIM domain kinase 2) | Kd (Ephrin type-A receptor 2) | Kd [5] | Kd (Obg-like ATPase 1) | Kd [6] |
| --- | --- | --- | --- | --- | --- | --- | --- | --- | --- | --- |
| CC(=O)c1cnc2ccc(-c3cc(Cl)c(O)c(Cl)c3)nc2c1N[C@H]1CC[C@H](CN(C)C)CC1 | > 30 µM (inactive) | > 30 µM (inactive) | 0.311 µM (active) | > 30 µM (inactive) | > 30 µM (inactive) | > 30 µM (inactive) | 0.11 µM (active) | > 30 µM (inactive) | > 30 µM (inactive) | 0.098 µM (active) |
| C=CC(=O)N1CCC[C@H](n2c(=O)n(-c3ccc(Oc4ccccc4)cc3)c3c(N)ncnc32)C1 | > 30 µM (inactive) | > 30 µM (inactive) | > 30 µM (inactive) | > 30 µM (inactive) | > 30 µM (inactive) | > 30 µM (inactive) | > 30 µM (inactive) | > 30 µM (inactive) | > 30 µM (inactive) | > 30 µM (inactive) |
| COCc1c(-c2ccc(NC(=O)Nc3cc(C(F)(F)F)ccc3F)c(F)c2)c2c(N)ncnn2c1CN1CCOCC1 | > 30 µM (inactive) | > 30 µM (inactive) | > 30 µM (inactive) | > 30 µM (inactive) | > 30 µM (inactive) | > 30 µM (inactive) | > 30 µM (inactive) | > 30 µM (inactive) | > 30 µM (inactive) | > 30 µM (inactive) |
| Cc1cc(C(=O)NOCCO)c(Nc2ccc(I)cc2F)n(C)c1=O [AZD-8330] | > 30 µM (inactive) | > 30 µM (inactive) | > 30 µM (inactive) | – | > 30 µM (inactive) | > 30 µM (inactive) | > 30 µM (inactive) | > 30 µM (inactive) | > 30 µM (inactive) | > 30 µM (inactive) |
| CCn1c(C(=O)N(C2CC2)C2CC2)cc2c3c(ncn3C)c(Nc3cc(C)n(C)n3)nc21 [BMS-911543] | > 30 µM (inactive) | > 30 µM (inactive) | > 30 µM (inactive) | > 30 µM (inactive) | > 30 µM (inactive) | > 30 µM (inactive) | > 30 µM (inactive) | > 30 µM (inactive) | > 30 µM (inactive) | > 30 µM (inactive) |
| Cn1cc(C2=C(c3cn(C4CCN(Cc5ccccn5)CC4)c4ccccc34)C(=O)NC2=O)c2ccccc21 [ENZASTAURIN] | > 30 µM (inactive) | > 30 µM (inactive) | > 30 µM (inactive) | > 30 µM (inactive) | – | – | – | > 30 µM (inactive) | – | – |
| Cc1nc2cc(-n3ncc(C(=O)c4cc5ccccc5[nH]4)c3N)ccc2[nH]1 [FGFR INHIBITOR DEBIO 1347] | > 30 µM (inactive) | > 30 µM (inactive) | > 30 µM (inactive) | > 30 µM (inactive) | > 30 µM (inactive) | > 30 µM (inactive) | > 30 µM (inactive) | > 30 µM (inactive) | > 30 µM (inactive) | > 30 µM (inactive) |
| O=C(Nc1nc2cccc(-c3ccc(CN4CCS(=O)(=O)CC4)cc3)n2n1)C1CC1 [FILGOTINIB] | > 30 µM (inactive) | > 30 µM (inactive) | > 30 µM (inactive) | > 30 µM (inactive) | > 30 µM (inactive) | > 30 µM (inactive) | > 30 µM (inactive) | > 30 µM (inactive) | > 30 µM (inactive) | > 30 µM (inactive) |
| CCn1cc(-c2ccnc3[nH]c(-c4cccc(CN(C)C)c4)cc23)c(-c2ccc(NC(=O)N(C)C)cc2)n1 [GSK-1070916] | > 30 µM (inactive) | > 30 µM (inactive) | > 30 µM (inactive) | – | > 30 µM (inactive) | > 30 µM (inactive) | > 30 µM (inactive) | – | – | 2.89 µM (active) |
| NC1(c2ccc(-c3nc4ccn5c(=O)[nH]nc5c4cc3-c3ccccc3)cc2)CCC1 [MK-2206] | > 30 µM (inactive) | > 30 µM (inactive) | > 30 µM (inactive) | > 30 µM (inactive) | > 30 µM (inactive) | > 30 µM (inactive) | > 30 µM (inactive) | – | > 30 µM (inactive) | > 30 µM (inactive) |
| COc1ncc(-c2ccc3nccc(-c4ccnnc4)c3c2)cc1NS(=O)(=O)c1ccc(F)cc1F [OMIPALISIB] | > 30 µM (inactive) | > 30 µM (inactive) | > 30 µM (inactive) | > 30 µM (inactive) | > 30 µM (inactive) | > 30 µM (inactive) | > 30 µM (inactive) | > 30 µM (inactive) | > 30 µM (inactive) | > 30 µM (inactive) |
| CCCCCCCCCCCCCCCCCCOP(=O)([O-])OC1CC[N+](C)(C)CC1 [PERIFOSINE] | > 30 µM (inactive) | > 30 µM (inactive) | > 30 µM (inactive) | > 30 µM (inactive) | > 30 µM (inactive) | > 30 µM (inactive) | > 30 µM (inactive) | > 30 µM (inactive) | > 30 µM (inactive) | > 30 µM (inactive) |
| CC(=O)NCC(=O)N1[C@@H]2CC[C@H]1c1ccc(Nc3ncc(C(F)(F)F)c(NC4CCC4)n3)cc12 [PF-03814735] | > 30 µM (inactive) | > 30 µM (inactive) | > 30 µM (inactive) | – | > 30 µM (inactive) | > 30 µM (inactive) | – | > 30 µM (inactive) | > 30 µM (inactive) | > 30 µM (inactive) |
| CNC(=O)c1cc(Oc2ccc(NC(=O)Nc3cc(C(C)(C)C)nn3-c3ccc4ncccc4c3)c(F)c2)ccn1 [REBASTINIB] | > 30 µM (inactive) | > 30 µM (inactive) | > 30 µM (inactive) | > 30 µM (inactive) | – | 3.5 µM (active) | > 30 µM (inactive) | – | > 30 µM (inactive) | > 30 µM (inactive) |
| N#CC1(c2ccc(NC(=O)c3cccnc3NCc3ccncc3)cc2)CCCC1 [RIVOCERANIB] | > 30 µM (inactive) | > 30 µM (inactive) | > 30 µM (inactive) | > 30 µM (inactive) | > 30 µM (inactive) | > 30 µM (inactive) | > 30 µM (inactive) | > 30 µM (inactive) | > 30 µM (inactive) | > 30 µM (inactive) |
| Cc1cc(Nc2ncnc3ccc(NC4=NC(C)(C)CO4)cc23)ccc1Oc1ccn2ncnc2c1 [TUCATINIB] | > 30 µM (inactive) | > 30 µM (inactive) | > 30 µM (inactive) | > 30 µM (inactive) | > 30 µM (inactive) | > 30 µM (inactive) | > 30 µM (inactive) | – | > 30 µM (inactive) | > 30 µM (inactive) |
| CC(C)c1cc(CNc2nc(Nc3cc(C4CC4)[nH]n3)cc(N3CCN(C)CC3)n2)on1 [XL-228] | > 30 µM (inactive) | > 30 µM (inactive) | > 30 µM (inactive) | > 30 µM (inactive) | > 30 µM (inactive) | > 30 µM (inactive) | 0.032 µM (active) | – | – | > 30 µM (inactive) |
